The results in this text go back to patent publication US10070645B2, “N-cycloalkyl-N-{[2-(1-substitutedcycloalkyl)phenyl]methylene}-(thio)carboxamide derivatives” (BAYER CROPSCIENCE AKTIENGESELLSCHAFT, priority 2013, dated 2018).

SMILES strings stand for the structures.

This series can be described thus: log P by HPLC on a reversed-phase column (C 18), EEC Directive 79/831 Annex V.A8. Format: physicochemical. The settings on record: 0.1% aqueous formic acid and acetonitrile; for logP: 40° C., linear gradient 10% to 90% acetonitrile; for chromatographic logP: reversed-phase HPLC column (C 18), Table 3 (amines of formula II), HPLC C 18, 40° C. The method, then: In table 1, the log P values were determined in accordance with EEC Directive 79/831 Annex V.A8 by HPLC (High Performance Liquid Chromatography) on a reversed-phase column (C 18), using the method described below:
Temperature: 40° C.; Mobile phases: 0.1% aqueous formic acid and acetonitrile; linear gradient from 10% acetonitrile to 90% acetonitrile.
Calibration was carried out using unbranched alkan-2-ones (comprising 3 to 16 carbon atoms) with known log P values (determination of the log P values by the retention times using linear interpolation between two successive alkanones). lambda-max-values were determined using UV-spectra from 200 nm to 400 nm and the peak values of the chromatographic signals.

Setting [1] is: HPLC, reversed-phase column (C 18).
Setting [2] is: HPLC on reversed-phase column (C 18).

In the case of `CCC1(c2ccc(C)cc2CN(C(=O)c2c(C(F)F)nn(C)c2Cl)C2CC2)CC1` [I.112], the logP under setting [1] is on record as 4.77.

Turning to `CCC1(c2ccc(C)cc2CN(C(=O)c2c(C(F)F)nn(C)c2F)C2CC2)CC1` [I.113], the logP under setting [1] is given as 4.61.

`CCC1(c2cccc(F)c2CN(C(=O)c2c(C(F)F)nn(C)c2F)C2CC2)CC1` [I.114] yielded a logP under setting [1] of 4.19.

Take `CCC1(c2cccc(F)c2CN(C(=O)c2c(C(F)F)nn(C)c2Cl)C2CC2)CC1` [I.115]: the logP under setting [1] is reported as 4.34.

On to `COC1(c2ccccc2CN(C(=O)c2c(C(F)F)nn(C)c2F)C2CC2)CC1` [I.116], for which the logP under setting [1] amounted to 3.27.

`COC1(c2ccccc2CN(C(=O)c2c(C(F)F)nn(C)c2Cl)C2CC2)CC1` [I.117] returned a logP under setting [1] of 3.42.

As for `COC1(c2ccc(Cl)cc2CN(C(=O)c2c(C(F)F)nn(C)c2F)C2CC2)CC1` [I.118], the log partition coefficient (logP) under setting [1] is reported as 3.67.

Turning to `COC1(c2ccc(Cl)cc2CN(C(=O)c2c(C(F)F)nn(C)c2Cl)C2CC2)CC1` [I.119], the logP under setting [1] turned out to be 3.87.

Turning to `COC1(c2ccc(C(C)C)cc2CN(C(=O)c2c(C(F)F)nn(C)c2F)C2CC2)CC1` [I.121], the logP under setting [1] stood at 4.29.

Take `COC1(c2ccc(C)cc2CN(C(=O)c2c(C(F)F)nn(C)c2F)C2CC2)CC1` [I.122]: the lipophilicity (logP) under setting [1] is on record as 3.57.

Turning to `COC1(c2ccc(C)cc2CN(C(=O)c2c(C(F)F)nn(C)c2Cl)C2CC2)CC1` [I.123], the logP under setting [1] was found to be 3.74.

Regarding `COC1(c2ccc(C3=CCOCC3)cc2CN(C(=O)c2c(C(F)F)nn(C)c2F)C2CC2)CC1` [I.124], the logP under setting [1] is listed as 3.55.

Consider `COC1(c2ccc(-c3ccoc3)cc2CN(C(=O)c2c(C(F)F)nn(C)c2F)C2CC2)CC1` [I.125], for which, under setting [1], the logP is reported as 3.80.

Take `COC1(c2ccc(C3=CCCC3)cc2CN(C(=O)c2c(C(F)F)nn(C)c2F)C2CC2)CC1` [I.126]: the logP under setting [1] is reported as 4.76.

Regarding `C=C(C)c1ccc(C2(OC)CC2)c(CN(C(=O)c2c(C(F)F)nn(C)c2F)C2CC2)c1` [I.127], under setting [1], the logP stood at 4.12.

As to `CCCC1(c2cc(Cl)ccc2CN(C(=O)c2c(C(F)F)nn(C)c2F)C2CC2)CC1` [I.128], under setting [1], the logP is given as 5.14.

On to `CCCC1(c2cc(Cl)ccc2CN(C(=O)c2c(C(F)F)nn(C)c2Cl)C2CC2)CC1` [I.129], for which the lipophilicity (logP) under setting [1] is listed as 5.31.

Regarding `CCCC1(c2ccc(C)cc2CN(C(=O)c2c(C(F)F)nn(C)c2F)C2CC2)CC1` [I.130], the logP under setting [1] is listed as 5.03.

For the molecule `CCCC1(c2ccc(C)cc2CN(C(=O)c2c(C(F)F)nn(C)c2Cl)C2CC2)CC1` [I.131], the lipophilicity (logP) under setting [1] was 5.19.

Molecule `Cc1ccc(C2(Cl)CC2)c(CN(C(=O)c2c(C(F)F)nn(C)c2F)C2CC2)c1` [I.132] came in with a lipophilicity (logP) under setting [1] of 3.89.

Take `Cc1ccc(C2(Cl)CC2)c(CN(C(=O)c2c(C(F)F)nn(C)c2Cl)C2CC2)c1` [I.133]: the logP under setting [1] is 4.06.

On to `Cc1ccc(C2(C3CC3)CC2)c(CN(C(=O)c2c(C(F)F)nn(C)c2F)C2CC2)c1` [I.134], for which the logP under setting [1] is on record as 4.59.

`Cc1ccc(C2(C3CC3)CC2)c(CN(C(=O)c2c(C(F)F)nn(C)c2Cl)C2CC2)c1` [I.135] registered a logP under setting [1] of 4.72.

Consider `Cc1ccc(C2(C(C)C)CC2)c(CN(C(=O)c2c(C(F)F)nn(C)c2Cl)C2CC2)c1` [I.136], for which the logP under setting [1] stood at 5.11.

Consider `Cc1ccc(C2(C(C)C)CC2)c(CN(C(=O)c2c(C(F)F)nn(C)c2F)C2CC2)c1` [I.137], for which the logP under setting [1] came to 4.95.

As to `CCOC1(c2ccc(C)cc2CN(C(=O)c2c(C(F)F)nn(C)c2Cl)C2CC2)CC1` [I.138], under setting [1], the logP amounted to 4.21.

On to `CCOC1(c2ccc(C)cc2CN(C(=O)c2c(C(F)F)nn(C)c2F)C2CC2)CC1` [I.139], for which the logP under setting [1] was found to be 4.06.

Under setting [1], `Cc1ccc(C2(C)CC2Cl)c(CN(C(=O)c2c(C(F)F)nn(C)c2F)C2CC2)c1Cl` (stereo not drawn) [I.140] returned a logP of 4.58.

Turning to `Cn1nc(C(F)F)c(C(=O)N(Cc2c(C(F)(F)F)cccc2C2(C)CC2Cl)C2CC2)c1F` (stereo not drawn) [I.141], the logP under setting [1] is 4.46.

For `Cn1nc(C(F)F)c(C(=O)N(Cc2ccccc2C2(C(F)F)CC2)C2CC2)c1F` [I.142], the logP under setting [1] is recorded as 3.33.

For the molecule `Cn1nc(C(F)F)c(C(=O)N(Cc2ccccc2C2(C(F)F)CC2)C2CC2)c1Cl` [I.143], under setting [1], the lipophilicity (logP) is 3.46.

Molecule `Cn1nc(C(F)F)c(C(=O)N(Cc2ccc(F)cc2C2(C(F)F)CC2)C2CC2)c1F` [I.144] returned a log partition coefficient (logP) under setting [1] of 3.41.

In the case of `Cn1nc(C(F)F)c(C(=O)N(Cc2ccc(F)cc2C2(C(F)F)CC2)C2CC2)c1Cl` [I.145], under setting [1], the logP is recorded as 3.55.

As for `Cn1nc(C(F)F)c(C(=O)N(Cc2cc(Br)ccc2C2(C(F)F)CC2)C2CC2)c1F` [I.146], the logP under setting [1] is on record as 3.76.

Consider `Cn1nc(C(F)F)c(C(=O)N(Cc2cc(Br)ccc2C2(C(F)F)CC2)C2CC2)c1Cl` [I.147], for which the logP under setting [1] was found to be 3.92.

`Cn1nc(C(F)F)c(C(=O)N(Cc2cc(Cl)ccc2C2(C(F)F)CC2)C2CC2)c1Cl` [I.148]: under setting [1], the logP is 3.85.

Molecule `Cn1nc(C(F)F)c(C(=O)N(Cc2cc(Cl)ccc2C2(C(F)F)CC2)C2CC2)c1F` [I.149] yielded a logP under setting [1] of 3.70.

Under setting [1], `Cn1nc(C(F)F)c(C(=O)N(Cc2cc(C3CC3)ccc2C2(C(F)F)CC2)C2CC2)c1F` [I.150] yielded a logP of 3.94.

Molecule `Cn1nc(C(F)F)c(C(=O)N(Cc2cc(F)ccc2C2(C(F)F)CC2)C2CC2)c1Cl` [I.152] returned a logP under setting [1] of 3.53.

As to `Cc1ccc(C2(C(F)F)CC2)c(CN(C(=O)c2c(C(F)F)nn(C)c2F)C2CC2)c1` [I.153], under setting [1], the logP is 3.64.

The molecule `Cc1ccc(C2(C(F)F)CC2)c(CN(C(=O)c2c(C(F)F)nn(C)c2Cl)C2CC2)c1` [I.154] showed a logP under setting [1] of 3.76.

As to `Cn1nc(C(F)F)c(C(=O)N(Cc2c(Br)cccc2C2(C(F)F)CC2)C2CC2)c1F` [I.155], the log partition coefficient (logP) under setting [1] is 3.76.

`Cn1nc(C(F)F)c(C(=O)N(Cc2c(Br)cccc2C2(C(F)F)CC2)C2CC2)c1Cl` [I.156] showed a logP under setting [1] of 3.87.

Turning to `CC(C)CC1(c2cc(Cl)ccc2CN(C(=O)c2c(C(F)F)nn(C)c2F)C2CC2)CC1` [I.157], the logP under setting [1] is given as 5.42.

`CC(C)CC1(c2cc(Cl)ccc2CN(C(=O)c2c(C(F)F)nn(C)c2Cl)C2CC2)CC1` [I.158] registered a logP under setting [2] of 5.59.

Take `Cc1ccc(C2(CC(C)C)CC2)c(CN(C(=O)c2c(C(F)F)nn(C)c2F)C2CC2)c1` [I.159]: the lipophilicity (logP) under setting [2] is on record as 5.36.

For the molecule `Cc1ccc(C2(CC(C)C)CC2)c(CN(C(=O)c2c(C(F)F)nn(C)c2Cl)C2CC2)c1` [I.160], under setting [2], the log partition coefficient (logP) worked out at 5.54.

`Cn1nc(C(F)F)c(C(=O)N(Cc2ccccc2C2(C(F)(F)F)CC2)C2CC2)c1F` [I.161] came in with a log partition coefficient (logP) under setting [2] of 2.34.

Under setting [2], `Cn1nc(C(F)F)c(C(=O)N(Cc2ccccc2C2(C(F)(F)F)CC2)C2CC2)c1Cl` [I.162] returned a logP of 3.87.

As for `Cn1nc(C(F)F)c(C(=O)N(Cc2cc(Cl)ccc2C2(C(F)(F)F)CC2)C2CC2)c1F` [I.163], under setting [2], the lipophilicity (logP) is on record as 4.13.

`Cn1nc(C(F)F)c(C(=O)N(Cc2cc(Cl)ccc2C2(C(F)(F)F)CC2)C2CC2)c1Cl` [I.164] yielded a logP under setting [2] of 4.30.

Turning to `Cn1nc(C(F)F)c(C(=O)N(Cc2cc(F)ccc2C2(C(F)(F)F)CC2)C2CC2)c1F` [I.165], the logP under setting [2] is reported as 3.83.

`Cn1nc(C(F)F)c(C(=O)N(Cc2cc(F)ccc2C2(C(F)(F)F)CC2)C2CC2)c1Cl` [I.166] registered a logP under setting [2] of 3.96.

As for `Cc1ccc(C2(C(F)(F)F)CC2)c(CN(C(=O)c2c(C(F)F)nn(C)c2F)C2CC2)c1` [I.167], under setting [2], the log partition coefficient (logP) is reported as 4.11.

In turn, `Cn1nc(C(F)F)c(C(=O)N(Cc2cc(Cl)c(Cl)cc2C2(C)CC2)C2CC2)c1F` [I.180] had a log partition coefficient (logP) under setting [2] of 4.73.

Turning to `Cn1nc(C(F)F)c(C(=O)N(Cc2cc(Cl)c(Cl)cc2C2(C)CC2)C2CC2)c1Cl` [I.181], the logP under setting [2] came to 4.93.

Under setting [2], `COCC1(c2ccc(C)cc2CN(C(=O)c2c(C(F)F)nn(C)c2F)C2CC2)CC1` [I.182] yielded a logP of 3.52.

Under setting [2], `COCC1(c2ccc(C)cc2CN(C(=O)c2c(C(F)F)nn(C)c2Cl)C2CC2)CC1` [I.183] came in with a logP of 3.68.

Consider `CC1(c2ccccc2CNC2CC2)CC1` [II.01, N-[2-(1-methylcyclopropyl)benzyl]cyclopropanamine], for which the chromatographic logP came out at 1.1.

The molecule `CC1(c2c(F)cccc2CNC2CC2)CC1` [II.02, N-[3-fluoro-2-(1-methylcyclopropyl)benzyl]cyclopropanamine] displayed a chromatographic logP of 1.36.

Consider `CC1(c2c(CNC3CC3)ccc3c2OCO3)CC1` [II.03, N-{[4-(1-methylcyclopropyl)-1,3-benzodioxol-5-yl]methyl}cyclopropanamine], for which the chromatographic logP stood at 1.43.

`CC1(c2cc(Cl)ccc2CNC2CC2)CC1` [II.04, N-[4-chloro-2-(1-methylcyclopropyl)benzyl]cyclopropanamine] gave a chromatographic logP of 1.54.

The molecule `Cc1ccc(CNC2CC2)c(C2(C)CC2)c1` [II.05, N-[4-methyl-2-(1-methylcyclopropyl)benzyl]cyclopropanamine] came in with a chromatographic logP of 1.43.

On to `Cc1cc(CNC2CC2)c(C2(C)CC2)cc1C` [II.06, N-[4,5-dimethyl-2-(1-methylcyclopropyl)benzyl]cyclopropanamine], for which the chromatographic logP was found to be 1.68.

For `CC1(c2cc(Cl)c(Cl)cc2CNC2CC2)CC1` [II.07, N-[4,5-dichloro-2-(1-methylcyclopropyl)benzyl]cyclopropanamine], the chromatographic logP was determined as 1.79.

As to `COc1cc(CNC2CC2)c(C2(C)CC2)cc1OC` [II.08, N-[4,5-dimethoxy-2-(1-methylcyclopropyl)benzyl]cyclopropanamine], the chromatographic logP was 1.26.
